In ChEMBL document CHEMBL3865792, “Antioxidant and antitumor activity of trolox, trolox succinate, and α-tocopheryl succinate conjugates with nitroxides” (Eur J Med Chem, 2016):
pIC50: −log10 of the molar value.

Assays:
[1] = Cytotoxicity against human U937 cells assessed as reduction in cell viability after 72 hrs by MTT assay; format: functional, cell-based; settings: U-937, 72 h
[2] = Cytotoxicity against hamster AG17-1 cells assessed as reduction in cell viability at 300 uM after 72 hrs by MTT assay; format: toxicity, cell-based, Cricetulus griseus; settings: Chinese hamster, read-out: INH
[3] = Cytotoxicity against human RPMI8226 cells assessed as reduction in cell viability after 72 hrs by MTT assay; format: functional, cell-based; settings: RPMI-8226, 72 h
[4] = test system: Salmonella enterica subsp. enterica serovar Typhimurium; test: Antioxidant activity in Salmonella typhimurium TA102 harboring […] mutant assessed as inhibition of t-BuO2H-dependant mutant formation at 0.3 uM preincubated with compound followed by t-BuO2H addition after 48 hrs by Ames test; format: functional
[5] = Cytotoxicity against mouse LMTK cells assessed as reduction in cell viability after 72 hrs by MTT assay; format: toxicity
[6] = Cytotoxicity against human CEM13 cells assessed as reduction in cell viability at 300 uM after 72 hrs by MTT assay; format: functional; settings: CEM13, 72 h
[7] = Ratio of IC50 for human MCF7 cells to concentration causing antioxidant activity in Salmonella typhimurium TA102 harboring […] mutant; format: functional
[8] = test system: Salmonella enterica subsp. enterica serovar Typhimurium; test: Antioxidant activity in Salmonella typhimurium TA102 harboring […] mutant assessed as inhibition of t-BuO2H-dependant mutant formation at 30 uM preincubated with compound followed by t-BuO2H addition after 48 hrs by Ames test; format: functional
[9] = Cytotoxicity against human CEM13 cells assessed as reduction in cell viability after 72 hrs by MTT assay; format: functional, cell-based; settings: CEM13, 72 h
[10] = Cytotoxicity against human HepG2 cells assessed as reduction in cell viability at 300 uM after 72 hrs by MTT assay; format: functional; settings: HepG2, 72 h
[11] = Ratio of IC50 for human CEM13 cells to concentration causing antioxidant activity in Salmonella typhimurium TA102 harboring […] mutant; format: functional
[12] = Genotoxicity in Escherichia coli PQ37 expressing lacZ gene assessed as ratio of inducible beta-galactosidase activity to alkaline phosphatase activity at 30 mM after 2 hrs by SOS-chromotest relative to control; format: toxicity; settings: Escherichia coli PQ37 cells expressing lacZ gene, read-out: FC
[13] = test system: Salmonella typhimurium; test: Genotoxicity in Salmonella typhimurium TA102 harboring […] mutant assessed as frequency of reversion from histidine auxotrophy to prototrophy at 30 mM after 48 hrs by Ames test (reference value: 209 +/- 10 No _unit); format: toxicity, organism-based; settings: salmonella enterica subsp. enterica serovar typhimurium, 30000 µM
[14] = Cytotoxicity against human MT4 cells assessed as reduction in cell viability after 72 hrs by MTT assay; format: functional, cell-based; settings: MT4, 72 h
[15] = Cytotoxicity against human MCF7 cells assessed as reduction in cell viability after 72 hrs by MTT assay; format: functional, cell-based; settings: MCF7, 72 h
[16] = Ratio of IC50 for human MT4 cells to concentration causing antioxidant activity in Salmonella typhimurium TA102 harboring […] mutant; format: functional
[17] = test system: Salmonella enterica subsp. enterica serovar Typhimurium; test: Antioxidant activity in Salmonella typhimurium TA102 harboring […] mutant assessed as inhibition of t-BuO2H-dependant mutant formation at 3 uM preincubated with compound followed by t-BuO2H addition after 48 hrs by Ames test; format: functional
[18] = Ratio of IC50 for human RPMI8226 cells to concentration causing antioxidant activity in Salmonella typhimurium TA102 harboring […] mutant; format: functional, RPMI-8226
[19] = Cytotoxicity against human HepG2 cells assessed as reduction in cell viability after 72 hrs by MTT assay; format: functional, cell-based; settings: HepG2, 72 h
[20] = Cytotoxicity against mouse LMTK cells assessed as reduction in cell viability at 300 uM after 72 hrs by MTT assay; format: toxicity; settings: read-out: INH
[21] = Ratio of IC50 for human HEPG2 cells to concentration causing antioxidant activity in Salmonella typhimurium TA102 harboring […] mutant; format: functional
[22] = Cytotoxicity against hamster AG17-1 cells assessed as reduction in cell viability after 72 hrs by MTT assay; format: toxicity, cell-based, Cricetulus griseus; settings: Chinese hamster
[23] = Ratio of IC50 for human U937 cells to concentration causing antioxidant activity in Salmonella typhimurium TA102 harboring […] mutant; format: functional, U-937
[24] = Cytotoxicity against human MCF7 cells assessed as reduction in cell viability at 300 uM after 72 hrs by MTT assay; format: functional; settings: MCF7, 72 h

Cc1c(C)c2c(c(C)c1OC(=O)CCC(=O)NC1CC(C)(C)N([O])C1(C)C)CC[C@@](C)(CCC[C@H](C)CCC[C@H](C)CCCC(C)C)O2 (some centres not stated)
pIC50 [1]: 4.16 | cytotoxicity at 72 h, 300 µM [2]: 38% | pIC50 [3]: 4.26 | inhibition [4]: 21% | IC50 at 72 h [5]: > 300 µM | inhibition at 300 µM [6]: 34% | Ratio [7]: 100 - 1000 | inhibition [8]: 12% | pIC50 [9]: < 3.52 | inhibition at 300 µM [10]: 38% | Ratio [11]: 100 - 1000 | fold induction at 2 h, 30000 µM [12]: 0.8 | Activity [13]: 227 | pIC50 [14]: 4.06 | pIC50 [15]: 4.02 | Ratio [16]: 100 - 1000 | inhibition [17]: 29% | Ratio [18]: 100 - 1000 | pIC50 [19]: < 3.52 | cytotoxicity at 72 h, 300 µM [20]: 30% | Ratio [21]: 100 - 1000 | IC50 at 72 h [22]: > 300 µM | Ratio [23]: 100 - 1000

Cc1c(C)c2c(c(C)c1OC(=O)CCC(=O)NCC1CC(C)(C)N([O])C1(C)C)CC[C@@](C)(CCC[C@H](C)CCC[C@H](C)CCCC(C)C)O2 (some centres not stated)
pIC50 [1]: 3.86 | cytotoxicity at 72 h, 300 µM [2]: 32% | pIC50 [3]: 3.66 | inhibition [4]: 1% | IC50 at 72 h [5]: > 300 µM | Ratio [7]: 100 - 1000 | inhibition [8]: 24% | pIC50 [9]: 3.98 | inhibition at 300 µM [10]: 10% | Ratio [11]: 100 - 1000 | fold induction at 2 h, 30000 µM [12]: 1 | Activity [13]: 215 | pIC50 [14]: 4.04 | pIC50 [15]: 3.59 | Ratio [16]: 100 - 1000 | inhibition [17]: 4% | Ratio [18]: 100 - 1000 | pIC50 [19]: < 3.52 | cytotoxicity at 72 h, 300 µM [20]: 7% | Ratio [21]: 100 - 1000 | IC50 at 72 h [22]: > 300 µM | Ratio [23]: 100 - 1000

Cc1c(C)c2c(c(C)c1OC(=O)CCC(=O)O)CC[C@@](C)(CCC[C@H](C)CCC[C@H](C)CCCC(C)C)O2 [(+)-ALPHA-TOCOPHERYL SUCCINATE]
pIC50 [1]: 3.95 | pIC50 [3]: 4.20 | inhibition [4]: 56% | IC50 at 72 h [5]: 73 µM | inhibition at 300 µM [6]: 40% | inhibition [8]: 63.6% | pIC50 [9]: < 3.52 | fold induction at 2 h, 30000 µM [12]: 1.1 | Activity [13]: 216 | pIC50 [14]: 4.18 | pIC50 [15]: 4.24 | inhibition [17]: 63.2% | pIC50 [19]: 3.61 | IC50 at 72 h [22]: 50 µM

Cc1c(C)c2c(c(C)c1O)CCC(C)(C(=O)NC1CC(C)(C)N([O])C(C)(C)C1)O2 (configuration not stated)
pIC50 [1]: 3.79 | pIC50 [3]: 4.41 | inhibition [4]: 11% | IC50 at 72 h [5]: 252 µM | inhibition at 300 µM [6]: 32% | Ratio [7]: 100 - 1000 | inhibition [8]: 4.1% | pIC50 [9]: < 3.52 | Ratio [11]: 100 - 1000 | fold induction at 2 h, 30000 µM [12]: 1.4 | Activity [13]: 218 | pIC50 [14]: 4.26 | pIC50 [15]: 4.24 | Ratio [16]: 100 - 1000 | inhibition [17]: 21.5% | Ratio [18]: 100 - 1000 | pIC50 [19]: 4.27 | Ratio [21]: 100 - 1000 | IC50 at 72 h [22]: 186 µM | Ratio [23]: 100 - 1000

Cc1c(C)c2c(c(C)c1O)CCC(C)(C(=O)NCC1CC(C)(C)N([O])C1(C)C)O2 (configuration not stated)
pIC50 [1]: 3.87 | pIC50 [3]: 4.15 | inhibition [4]: 26% | IC50 at 72 h [5]: 300 µM | inhibition at 300 µM [6]: 32% | Ratio [7]: 100 - 1000 | inhibition [8]: 17.7% | pIC50 [9]: < 3.52 | inhibition at 300 µM [10]: 38% | Ratio [11]: 100 - 1000 | fold induction at 2 h, 30000 µM [12]: 1 | Activity [13]: 225 | pIC50 [14]: 3.64 | pIC50 [15]: < 3.52 | Ratio [16]: 100 - 1000 | inhibition [17]: 21.5% | inhibition at 300 µM [24]: 34% | Ratio [18]: 100 - 1000 | pIC50 [19]: < 3.52 | cytotoxicity at 72 h, 300 µM [20]: 25% | Ratio [21]: 100 - 1000 | IC50 at 72 h [22]: 192 µM | Ratio [23]: 100 - 1000
